Experimental data from patent US7371766B2, “Curcumin analogs with anti-tumor and anti-angiogenic properties” (Emory University, priority 1999, dated 2008).

Key:
CCRF-CEM = assay: cells; conditions: Homo sapiens, 48 h; for GI50: read-out: Median Growth Inhibitory Concentration (GI50); for CC50: read-out: Median Lethal Concentration (LC50)
HL-60 (TB) = assay: cells; conditions: Homo sapiens, HL-60, 48 h; for GI50: read-out: Median Growth Inhibitory Concentration (GI50); for CC50: read-out: Median Lethal Concentration (LC50)
MOLT-4 = assay: cells; conditions: Homo sapiens, MOLT-4, 48 h; for GI50: read-out: Median Growth Inhibitory Concentration (GI50); for CC50: read-out: Median Lethal Concentration (LC50)
SR = assay: cells; conditions: Homo sapiens, 48 h; for GI50: read-out: Median Growth Inhibitory Concentration (GI50); for CC50: read-out: Median Lethal Concentration (LC50)
A549 = assay: cells; conditions: Homo sapiens, A549, 48 h; for GI50: read-out: Median Growth Inhibitory Concentration (GI50); for CC50: read-out: Median Lethal Concentration (LC50)
HOP-62 = assay: cells; conditions: Homo sapiens, HOP-62, 48 h; for GI50: read-out: Median Growth Inhibitory Concentration (GI50); for CC50: read-out: Median Lethal Concentration (LC50)
NCI-H226 = assay: cells; conditions: Homo sapiens, NCI-H226, 48 h; for GI50: read-out: Median Growth Inhibitory Concentration (GI50); for CC50: read-out: Median Lethal Concentration (LC50)
NCI-H23 = assay: cells; conditions: Homo sapiens, NCI-H23, 48 h; for GI50: read-out: Median Growth Inhibitory Concentration (GI50); for CC50: read-out: Median Lethal Concentration (LC50)
NCI-H522 = assay: cells; conditions: Homo sapiens, NCI-H522, 48 h; for GI50: read-out: Median Growth Inhibitory Concentration (GI50); for CC50: read-out: Median Lethal Concentration (LC50)
COLO 205 = assay: cells; conditions: Homo sapiens, COLO 205, 48 h; for GI50: read-out: Median Growth Inhibitory Concentration (GI50); for CC50: read-out: Median Lethal Concentration (LC50)
HCC-2998 = assay: cells; conditions: Homo sapiens, HCC 2998, 48 h; for GI50: read-out: Median Growth Inhibitory Concentration (GI50); for CC50: read-out: Median Lethal Concentration (LC50)
HT29 = assay: cells; conditions: Homo sapiens, HT-29, 48 h; for GI50: read-out: Median Growth Inhibitory Concentration (GI50); for CC50: read-out: Median Lethal Concentration (LC50)
KM12 = assay: cells; conditions: Homo sapiens, KM12, 48 h; for GI50: read-out: Median Growth Inhibitory Concentration (GI50); for CC50: read-out: Median Lethal Concentration (LC50)
SF-268 = assay: cells; conditions: Homo sapiens, SF-268, 48 h; for GI50: read-out: Median Growth Inhibitory Concentration (GI50); for CC50: read-out: Median Lethal Concentration (LC50)
SF-295 = assay: cells; conditions: Homo sapiens, SF-295, 48 h; for GI50: read-out: Median Growth Inhibitory Concentration (GI50); for CC50: read-out: Median Lethal Concentration (LC50)
SNB-19 = assay: cells; conditions: Homo sapiens, SNB-19, 48 h; for GI50: read-out: Median Growth Inhibitory Concentration (GI50); for CC50: read-out: Median Lethal Concentration (LC50)
LOX IMVI = assay: cells; conditions: Homo sapiens, 48 h; for GI50: read-out: Median Growth Inhibitory Concentration (GI50); for CC50: read-out: Median Lethal Concentration (LC50)
SK-MEL-28 = assay: cells; conditions: Homo sapiens, SK-MEL-28, 48 h; for GI50: read-out: Median Growth Inhibitory Concentration (GI50); for CC50: read-out: Median Lethal Concentration (LC50)
SK-MEL-5 = assay: cells; conditions: Homo sapiens, SK-MEL-5, 48 h; for GI50: read-out: Median Growth Inhibitory Concentration (GI50); for CC50: read-out: Median Lethal Concentration (LC50)
OVCAR-3 = assay: cells; conditions: Homo sapiens, OVCAR-3, 48 h; for GI50: read-out: Median Growth Inhibitory Concentration (GI50); for CC50: read-out: Median Lethal Concentration (LC50)
OVCAR-4 = assay: cells; conditions: Homo sapiens, OVCAR-4, 48 h; for GI50: read-out: Median Growth Inhibitory Concentration (GI50); for CC50: read-out: Median Lethal Concentration (LC50)
SK-OV-3 = assay: cells; conditions: Homo sapiens, SK-OV-3, 48 h; for GI50: read-out: Median Growth Inhibitory Concentration (GI50); for CC50: read-out: Median Lethal Concentration (LC50)
786-0 = assay: cells; conditions: Homo sapiens, 786-0, 48 h; for GI50: read-out: Median Growth Inhibitory Concentration (GI50); for CC50: read-out: Median Lethal Concentration (LC50)
A498 = assay: cells; conditions: Homo sapiens, A498, 48 h; for GI50: read-out: Median Growth Inhibitory Concentration (GI50); for CC50: read-out: Median Lethal Concentration (LC50)
ACHN = assay: cells; conditions: Homo sapiens, 48 h; for GI50: read-out: Median Growth Inhibitory Concentration (GI50); for CC50: read-out: Median Lethal Concentration (LC50)
UO-31 = assay: cells; conditions: Homo sapiens, UO-31, 48 h; for GI50: read-out: Median Growth Inhibitory Concentration (GI50); for CC50: read-out: Median Lethal Concentration (LC50)
MDA-MB-231 = assay: cells; conditions: Homo sapiens, MDA-MB-231, 48 h; for GI50: read-out: Median Growth Inhibitory Concentration (GI50); for CC50: read-out: Median Lethal Concentration (LC50)
HS 578T = assay: cells; conditions: Homo sapiens, 48 h; for GI50: read-out: Median Growth Inhibitory Concentration (GI50); for CC50: read-out: Median Lethal Concentration (LC50)
[1] = system: Vascular Endothelial Growth Factor (VEGF) production by human melanoma cell line RPMI-7951; assay: VEGF ELISA, RPMI-7951; conditions: for VEGF ELISA / VEGF: RPMI-7951; for VEGF ELISA: DMSO control 3713
[2] = Homo sapiens, RPMI-7951, 72 h, read-out: VEGF

For `O=C(C=Cc1ccc(F)cc1F)C=Cc1ccc(F)cc1F` [EF9, 1,5-Bis(2,4-difluorophenyl)penta-1,4-dien-3-one], the GI50 (CCRF-CEM) was 3.1 µM, the CC50 (CCRF-CEM) was > 100 µM and the GI50 (HL-60 (TB)) was 4.2 µM. For the same molecule, the CC50 (HL-60 (TB)) was > 100 µM, the GI50 (MOLT-4) was 9.3 µM and the CC50 (MOLT-4) was > 100 µM. The GI50 (SR) was 1.2 µM, the CC50 (SR) was 77.9 µM and the GI50 (A549) was 8.9 µM. It also gave a CC50 (A549) of 71 µM, a GI50 (HOP-62) of 16.6 µM and a CC50 (HOP-62) of 60.7 µM. The GI50 (NCI-H226) was 24.3 µM, the CC50 (NCI-H226) was > 100 µM and the GI50 (NCI-H23) was 12.3 µM. It also gave a CC50 (NCI-H23) of 62.3 µM, a GI50 (NCI-H522) of 13.4 µM and a CC50 (NCI-H522) of 57.1 µM. For the same molecule, the GI50 (COLO 205) was 7.6 µM, the CC50 (COLO 205) was 52.8 µM and the GI50 (HCC-2998) was 3.3 µM. For the same molecule, the CC50 (HCC-2998) was 32.2 µM, the GI50 (HT29) was 4.1 µM and the CC50 (HT29) was 41.9 µM. For the same molecule, the GI50 (KM12) was 2.3 µM, the CC50 (KM12) was 14.6 µM and the GI50 (SF-268) was 13.7 µM. The CC50 (SF-268) was > 100 µM, the GI50 (SF-295) was 14.2 µM and the CC50 (SF-295) was 58.8 µM. The GI50 (SNB-19) was 14.7 µM, the CC50 (SNB-19) was 58.8 µM and the GI50 (LOX IMVI) was 3.4 µM. For the same molecule, the CC50 (LOX IMVI) was 67.6 µM, the GI50 (SK-MEL-28) was 18.6 µM and the CC50 (SK-MEL-28) was 61.1 µM. The GI50 (SK-MEL-5) was 12.1 µM, the CC50 (SK-MEL-5) was 53.1 µM and the GI50 (OVCAR-3) was 14.1 µM. It also gave a CC50 (OVCAR-3) of 52.1 µM, a GI50 (OVCAR-4) of 15.2 µM and a CC50 (OVCAR-4) of 61.6 µM. It also gave a GI50 (SK-OV-3) of 15.4 µM, a CC50 (SK-OV-3) of 53.7 µM and a GI50 (786-0) of 3.5 µM. The CC50 (786-0) was 49.6 µM, the GI50 (A498) was 2.4 µM and the CC50 (A498) was 23 µM. The GI50 (ACHN) was 16.5 µM, the CC50 (ACHN) was 54.8 µM and the GI50 (UO-31) was 9.6 µM. For the same molecule, the CC50 (UO-31) was 49.5 µM, the GI50 (MDA-MB-231) was 14.1 µM and the CC50 (MDA-MB-231) was 57.7 µM. For the same molecule, the GI50 (HS 578T) was 9.9 µM, the CC50 (HS 578T) was > 100 µM and the activity at 5 µM [1, 2] was 46%. The activity at 20 µM [1, 2] was 14%, the “VEGF ELISA” value ([1]; 5 μM) was 1868 pg/ml/well and the VEGF ([1]; 5 μM, DMSO control 4197 (EF-25: 1045)) was 1925 pg/mL. The “VEGF ELISA” value ([1]; 20 μM) was 705 pg/ml/well and the VEGF ([1]; 20 μM, DMSO control 4197) was 595 pg/mL.
`CC1(/C=C/c2ccccc2O)C=Cc2ccccc2O1` (centres unmarked) [EF7] showed a GI50 (CCRF-CEM) of 12.5 µM, a CC50 (CCRF-CEM) of 79.5 µM and a GI50 (HL-60 (TB)) of 17.7 µM. For the same molecule, the CC50 (HL-60 (TB)) was 76 µM, the GI50 (MOLT-4) was 7.7 µM and the CC50 (MOLT-4) was 64.7 µM. It also gave a GI50 (SR) of 15.2 µM, a CC50 (SR) of 76.8 µM and a GI50 (A549) of 14.9 µM. It also gave a CC50 (A549) of 53.3 µM, a GI50 (HOP-62) of 16.3 µM and a CC50 (HOP-62) of 63.1 µM. For the same molecule, the GI50 (NCI-H226) was 18.7 µM, the CC50 (NCI-H226) was 78.8 µM and the GI50 (NCI-H23) was 17.6 µM. For the same molecule, the CC50 (NCI-H23) was 62.9 µM, the GI50 (NCI-H522) was 16.2 µM and the CC50 (NCI-H522) was > 100 µM. It also gave a GI50 (COLO 205) of 17.5 µM, a CC50 (COLO 205) of 55.9 µM and a GI50 (HCC-2998) of 18.4 µM. For the same molecule, the CC50 (HCC-2998) was 56.8 µM, the GI50 (HT29) was 17.8 µM and the CC50 (HT29) was 60.6 µM. It also gave a GI50 (KM12) of 17.1 µM, a CC50 (KM12) of 55.5 µM and a GI50 (SF-268) of 19.8 µM. For the same molecule, the CC50 (SF-268) was > 100 µM, the GI50 (SF-295) was 15.5 µM and the CC50 (SF-295) was 55.1 µM. For the same molecule, the GI50 (SNB-19) was 17.5 µM, the CC50 (SNB-19) was 55.9 µM and the GI50 (LOX IMVI) was 17.2 µM. The CC50 (LOX IMVI) was 73.4 µM, the GI50 (SK-MEL-28) was 17.4 µM and the CC50 (SK-MEL-28) was 62.9 µM. The GI50 (SK-MEL-5) was 15.5 µM, the CC50 (SK-MEL-5) was 53.7 µM and the GI50 (OVCAR-3) was 15.6 µM. It also gave a CC50 (OVCAR-3) of 54.5 µM, a GI50 (OVCAR-4) of 14.1 µM and a CC50 (OVCAR-4) of 53.1 µM. It also gave a GI50 (SK-OV-3) of 16.6 µM, a CC50 (SK-OV-3) of 56.2 µM and a GI50 (786-0) of 16.4 µM. It also gave a CC50 (786-0) of 54.8 µM, a GI50 (A498) of 17.2 µM and a CC50 (A498) of 55.6 µM. It also gave a GI50 (ACHN) of 15.7 µM, a CC50 (ACHN) of 54 µM and a GI50 (UO-31) of 13.5 µM. It also gave a CC50 (UO-31) of 51.3 µM, a GI50 (MDA-MB-231) of 19.8 µM and a CC50 (MDA-MB-231) of 74.6 µM. The GI50 (HS 578T) was 22.4 µM, the CC50 (HS 578T) was > 100 µM and the activity at 20 µM [1, 2] was 27%.
